# Results taken from patent publication US4578489A (priority 1982, dated 1986).
# Read-outs that look alike come from different tables or passages of the source.
# Experiments:
# Artemia salina = assay: Action against Artemia salina nauplii; assay type: in vivo; set-up: key: 0: no change; 1: slight change; 1-2: animals are attacked; 2: animals are strongly attacked; 2-3: animals are nearly all dead; 3: animals are all dead
# Experimental: The eggs, which are available commercially, are caused to hatch by vigorous aeration. When 2-3 days old, the nauplii are exposed to the products at various concentrations (concentrations tested: 2.5; 1; 0.5 and 0.25 mg/liter) in synthetic seawater, and are observed over a prolonged period of time.
# Endomyces geotrichum = assay: Minimum inhibitory concentration against fungi, agar incorporation test, strain Q; assay type: cell-based; conditions: malt extract/agar
# In short: (§1)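 MIC (mg/liter) defined as the concentration inhibiting fungal growth from dropwise trace inoculum on malt extract agar containing compound at 2, 5, 10, 50 or 100 mg/liter final.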
# Alternaria alternata = assay: Minimum inhibitory concentration against fungi, agar incorporation test, strain N; assay type: cell-based; conditions: malt extract/agar
# In short: as §1
# Candida albicans = assay: Minimum inhibitory concentration against fungi, agar incorporation test, strain P; assay type: cell-based; conditions: malt extract/agar
# In short: as §1
# Chlorella vulgaris = assay: Action against algae: Chlorella vulgaris; assay type: cell-based; set-up: key: --: no growth on the agar, 3 ppm have destroyed the algae in 6 hours; conditions: 3 mg/liter; for Growth on the agar (algae-destroying action): 6 hours exposure, 14 days incubation; for Growth in the medium (growth inhibition): 14 days
# In short: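 14-day cultures diluted 1/200 in nutrient medium received compound at 3 mg/liter final. After 6 h, samples were spotted on algae/agar for algicidal action; growth inhibition in medium and killing on agar assessed visually after 14 days under 14 h light/10 h dark.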
# [1] = system: Alcaligenes denitrificans; assay: Minimum inhibitory concentration against bacteria, strain E; assay type: cell-based; conditions: 24 hours at 30° C.; tested at 100 and 300 mg/liter
# In short: (§2)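 Overnight culture → 1/1000 in saline → 1/1000 in Caso peptone broth; cpd 100 and 300 mg/liter; 24 h, 30° C., shaking; turbidity scored.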
# Aureobasidium pullulans [2] = assay: Minimum inhibitory concentration against fungi, agar incorporation test, strain R; assay type: cell-based; conditions: malt extract/agar
# In short: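 Compounds incorporated in malt extract agar at final 2, 5, 10, 50 and 100 mg/liter. Agar inoculated dropwise with traces of fungus. Value is the concentration (mg/liter) needed to inhibit growth.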
# Aureobasidium pullulans [3] = assay: Growth on wood; set-up: key: 1: growth on the wood; 2: slight growth on the wood; 3: no growth on the wood; 4: no growth on the wood and an inhibitory zone; conditions: 28°, 4 weeks
# Experimental: Small blocks of spruce wood, 7×10×10 mm in size, are dried in vacuo. The small blocks are then vacuum-impregnated by keeping them, in vacuo, in 100 ml of distilled water+biocide for 30 minutes and then subjecting them to a pressure treatment (2 atmospheres gauge by means of compressed air) for 18 hours in the water. The pieces of wood treated in this way are first subjected to leaching in running water and are then dried.
# The dried pieces of wood are placed on potato/glucose agar and the wood, as well as the surrounding agar, is inoculated with 0.1 ml of a spore suspension of Aureobasidium pullulans. After incubation at 28° for 4 weeks, the growth is evaluated in accordance with the following rating: […]
# Enterobacter aerogenes = assay: Minimum inhibitory concentration against bacteria, strain C; assay type: cell-based; conditions: 24 hours at 30° C.; tested at 100 and 300 mg/liter
# In short: as §2
# Aspergillus niger = assay: Minimum inhibitory concentration against fungi, agar incorporation test, strain K; assay type: cell-based; conditions: malt extract/agar
# In short: as §1
# Aspergillus phoenicis = assay: Minimum inhibitory concentration against fungi, agar incorporation test, strain L; assay type: cell-based; conditions: malt extract/agar
# In short: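 Agar incorporation test in malt extract agar with compound at final 2, 5, 10, 50 and 100 mg/liter, inoculated dropwise with fungus; value is concentration (mg/liter) inhibiting growth.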
# Chaetomium globosum = assay: Minimum inhibitory concentration against fungi, agar incorporation test, strain S; assay type: cell-based; conditions: malt extract/agar
# In short: as §1
# [4] = system: Enteromorpha intestinalis; assay: Action against Enteromorpha intestinalis: destruction (minimum killing concentration); assay type: in vivo; conditions: 4 hours in seawater, then 6-8 weeks in fresh seawater
# Experimental: (§3) The action against the green alga Enteromorpha, which is the most important in seawter fouling, is investigated in sterile-filtered seawater containing an Erd-Schreiber solution. This solution is composed of a nutrient extract, phosphate and nitrate. The incubation of Enteromorpha intestinalis is carried out in a light thermostat at 18° C. under an alternation of 14 hours of light and 10 hours of darkness.
# The algae which have been cultured in this way are exposed to the products under investigation for a short time (4 hours) in seawater. The minimum killing concentration (MKC) is determined by taking the algae out of the seawater containing a specific quantity of algicide, after the treatment time in the latter, washing the algae and investigating growth or mortality after incubation in fresh seawater for a further period of 6-8 weeks.
# The minimum killing concentration (MKC) indicates the amount of substance required to cause such damage to the algae within a specific time that they can no longer recover in fresh seawater and die out.
# Serratia marcencens = assay: Minimum inhibitory concentration against bacteria, strain D; assay type: cell-based; conditions: 24 hours at 30° C.; tested at 100 and 300 mg/liter
# In short: as §2
# [5] = system: Enteromorpha intestinalis; assay: Action against Enteromorpha intestinalis: inhibitory concentration (MIC); assay type: in vivo; conditions: seawater containing biocide for entire test; concentration tested 0.5 mg/liter
# Experimental: as §3
# For determining the inhibitory concentration (MIC), the algae are kept in seawater containing biocide for the entire duration of the test (concentration tested: 0.5 mg/liter).
# Bacillus subtilis = assay: Minimum inhibitory concentration against bacteria, strain F; assay type: cell-based; conditions: 24 hours at 30° C.; tested at 100 and 300 mg/liter
# In short: as §2
# Penicillium funiculosum = assay: Minimum inhibitory concentration against fungi, agar incorporation test, strain M; assay type: cell-based; conditions: malt extract/agar
# In short: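 Compounds incorporated into malt extract agar at final 2, 5, 10, 50 and 100 mg/liter, then inoculated dropwise with fungus. Value is the concentration (mg/liter) inhibiting growth.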
# Pseudomonas aeruginosa = assay: Minimum inhibitory concentration against bacteria, strain B; assay type: cell-based; conditions: 24 hours at 30° C.; tested at 100 and 300 mg/liter
# In short: as §2
# [6] = system: Cladosporium cladosporioides; assay: Minimum inhibitory concentration against fungi, agar incorporation test, strain O; assay type: cell-based; conditions: malt extract/agar
# In short: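 Compounds incorporated into malt extract agar at final concentrations of 2, 5, 10, 50 and 100 mg/liter, with fungal traces added dropwise. Value is the concentration (mg/liter) required to inhibit fungal growth.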
# [7] = system: mixed culture of bacteria; assay type: cell-based; set-up: key: +: growth, no destruction; (+): growth less than that of control (>10 colonies), slight destruction; (-): slight growth (1-10 colonies); -: no growth, destruction
# Proteus vulgaris = assay: Minimum inhibitory concentration against bacteria, strain A; assay type: cell-based; conditions: 24 hours at 30° C.; tested at 100 and 300 mg/liter
# In short: as §2
# [8] = 5 mg/l, culture diluted 1/1000 in Tyrode
# [9] = 5 mg/l, culture diluted 1/10000 in Tyrode
# [10] = 10 mg/l, culture diluted 1/1000 in Tyrode
# [11] = 10 mg/l, culture diluted 1/10000 in Tyrode
# [12] = 30 mg/l, culture diluted 1/1000 in Tyrode
# [13] = 30 mg/l, culture diluted 1/10000 in Tyrode
# [14] = 60 mg/l, culture diluted 1/1000 in Tyrode
# [15] = 60 mg/l, culture diluted 1/10000 in Tyrode
# [16] = 100 mg/l, culture diluted 1/1000 in Tyrode
# [17] = 100 mg/l, culture diluted 1/10000 in Tyrode
smiles,measurement,setting,value
"CCCCCCCCCCCCCC[N+](C)(C)Cc1ccccc1.CCC[CH2][Sn-]([Cl])([Cl])([CH2]CCC)[CH2]CCC [Example 2, dimethyl-benzyl-tetradecylammonium tributyldichlorostannate-(IV)]",Action against Artemia salina,"Artemia salina; 0,5 mg/l, 6 hours",1-2
same,Action against Artemia salina,"Artemia salina; 0,5 mg/l, 24 hours",2-3
same,Action against Artemia salina,"Artemia salina; 0,5 mg/l, 48 hours",3
same,Action against Artemia salina,"Artemia salina; 0,25 mg/l, 6 hours",0-1
same,Action against Artemia salina,"Artemia salina; 0,25 mg/l, 24 hours",2
same,Action against Artemia salina,"Artemia salina; 0,25 mg/l, 48 hours",2-3
same,Action against Artemia salina,"Artemia salina; 1 mg/l, 6 hours",2
same,Action against Artemia salina,"Artemia salina; 1 mg/l, 24 hours",3
same,Action against Artemia salina,"Artemia salina; 1 mg/l, 48 hours",3
same,Action against Artemia salina,"Artemia salina; 2,5 mg/l, 6 hours",2-3
same,Action against Artemia salina,"Artemia salina; 2,5 mg/l, 24 hours",3
same,Action against Artemia salina,"Artemia salina; 2,5 mg/l, 48 hours",3
same,"MIC against fungi, strain Q",Endomyces geotrichum,5 µg/mL
same,"MIC against fungi, strain N",Alternaria alternata,2 µg/mL
same,"MIC against fungi, strain P",Candida albicans,5 µg/mL
same,Growth on the agar (algae-destroying action),Chlorella vulgaris,--
same,Growth in the medium (growth inhibition),Chlorella vulgaris,--
same,"MIC against bacteria, strain E",[1],100 µg/mL
same,"MIC against fungi, strain R",Aureobasidium pullulans [2],2 µg/mL
same,"growth on wood, leached for 5 days",Aureobasidium pullulans [3]; 0.01 % in H2 O,4
same,"growth on wood, not leached",Aureobasidium pullulans [3]; 0.01 % in H2 O,4
same,"growth on wood, leached for 5 days",Aureobasidium pullulans [3]; 0.05 % in H2 O,4
same,"growth on wood, not leached",Aureobasidium pullulans [3]; 0.05 % in H2 O,4
same,"MIC against bacteria, strain C",Enterobacter aerogenes,100 µg/mL
same,"MIC against fungi, strain K",Aspergillus niger,2 µg/mL
same,"MIC against fungi, strain L",Aspergillus phoenicis,2 µg/mL
same,"MIC against fungi, strain S",Chaetomium globosum,2 µg/mL
same,"Destruction, 5 mg/liter",[4],yes
same,"MIC against bacteria, strain D",Serratia marcencens,100 µg/mL
same,MIC,[5],0.5 µg/mL
same,"MIC against bacteria, strain F",Bacillus subtilis,100 µg/mL
same,"MIC against fungi, strain M",Penicillium funiculosum,2 µg/mL
same,"MIC against bacteria, strain B",Pseudomonas aeruginosa,100 µg/mL
same,"MIC against fungi, strain O",[6],2 µg/mL
same,Growth (destruction of a mixed culture of bacteria),[7]; [8],+
same,Growth (destruction of a mixed culture of bacteria),[7]; [9],+
same,Growth (destruction of a mixed culture of bacteria),[7]; [10],+
same,Growth (destruction of a mixed culture of bacteria),[7]; [11],+
same,Growth (destruction of a mixed culture of bacteria),[7]; [12],"(+) (growth less than that of control (>10 colonies), slight destruction)"
same,Growth (destruction of a mixed culture of bacteria),[7]; [13],-
same,Growth (destruction of a mixed culture of bacteria),[7]; [14],"(+) (growth less than that of control (>10 colonies), slight destruction)"
same,Growth (destruction of a mixed culture of bacteria),[7]; [15],-
same,Growth (destruction of a mixed culture of bacteria),[7]; [16],(-) (slight growth (1-10 colonies))
same,Growth (destruction of a mixed culture of bacteria),[7]; [17],-
same,"MIC against bacteria, strain A",Proteus vulgaris,100 µg/mL
"CCCCCCCCCCCC[n+]1ccccc1.CCC[CH2][Sn-]([Cl])([Cl])([CH2]CCC)[CH2]CCC [Example 6, Pyridine-Nlauryl / Tributyldichloro]",Action against Artemia salina,"Artemia salina; 0,5 mg/l, 6 hours",1-2
same,Action against Artemia salina,"Artemia salina; 0,5 mg/l, 24 hours",2-3
same,Action against Artemia salina,"Artemia salina; 0,5 mg/l, 48 hours",3
same,Action against Artemia salina,"Artemia salina; 0,25 mg/l, 6 hours",1
same,Action against Artemia salina,"Artemia salina; 0,25 mg/l, 24 hours",2
same,Action against Artemia salina,"Artemia salina; 0,25 mg/l, 48 hours",2-3
same,Action against Artemia salina,"Artemia salina; 1 mg/l, 6 hours",2
same,Action against Artemia salina,"Artemia salina; 1 mg/l, 24 hours",3
same,Action against Artemia salina,"Artemia salina; 1 mg/l, 48 hours",3
same,Action against Artemia salina,"Artemia salina; 2,5 mg/l, 6 hours",2-3
same,Action against Artemia salina,"Artemia salina; 2,5 mg/l, 24 hours",3
same,Action against Artemia salina,"Artemia salina; 2,5 mg/l, 48 hours",3
same,"MIC against fungi, strain Q",Endomyces geotrichum,5 µg/mL
same,"MIC against fungi, strain N",Alternaria alternata,2 µg/mL
same,"MIC against fungi, strain P",Candida albicans,5 µg/mL
same,Growth on the agar (algae-destroying action),Chlorella vulgaris,--
same,Growth in the medium (growth inhibition),Chlorella vulgaris,--
same,"MIC against bacteria, strain E",[1],100 µg/mL
same,"MIC against fungi, strain R",Aureobasidium pullulans [2],2 µg/mL
same,"growth on wood, leached for 5 days",Aureobasidium pullulans [3]; 0.01 % in H2 O,4
same,"growth on wood, not leached",Aureobasidium pullulans [3]; 0.01 % in H2 O,4
same,"growth on wood, leached for 5 days",Aureobasidium pullulans [3]; 0.05 % in H2 O,4
same,"growth on wood, not leached",Aureobasidium pullulans [3]; 0.05 % in H2 O,4
same,"MIC against bacteria, strain C",Enterobacter aerogenes,100 µg/mL
same,"MIC against fungi, strain K",Aspergillus niger,2 µg/mL
same,"MIC against fungi, strain L",Aspergillus phoenicis,2 µg/mL
same,"MIC against fungi, strain S",Chaetomium globosum,2 µg/mL
same,"Destruction, 5 mg/liter",[4],yes
same,"MIC against bacteria, strain D",Serratia marcencens,100 µg/mL
same,MIC,[5],0.5 µg/mL
same,"MIC against bacteria, strain F",Bacillus subtilis,100 µg/mL
same,"MIC against fungi, strain M",Penicillium funiculosum,5 µg/mL
same,"MIC against bacteria, strain B",Pseudomonas aeruginosa,100 µg/mL
same,"MIC against fungi, strain O",[6],2 µg/mL
same,Growth (destruction of a mixed culture of bacteria),[7]; [8],+
same,Growth (destruction of a mixed culture of bacteria),[7]; [9],+
same,Growth (destruction of a mixed culture of bacteria),[7]; [10],+
same,Growth (destruction of a mixed culture of bacteria),[7]; [11],+
same,Growth (destruction of a mixed culture of bacteria),[7]; [12],+
same,Growth (destruction of a mixed culture of bacteria),[7]; [13],+
same,Growth (destruction of a mixed culture of bacteria),[7]; [14],+
same,Growth (destruction of a mixed culture of bacteria),[7]; [15],+
same,Growth (destruction of a mixed culture of bacteria),[7]; [16],+
same,Growth (destruction of a mixed culture of bacteria),[7]; [17],+
same,"MIC against bacteria, strain A",Proteus vulgaris,100 µg/mL
